Measurements published in patent US7049455B2, “Process for producing shogaols and intermediates for the synthesis thereof” (Toagosei Co., Ltd., priority 2002, dated 2006).
“Also recorded” adds a separate entry of the source.

Test system: mushroom-derived tyrosinase
Experiment: inhibition of the activity of mushroom-derived tyrosinase, L-dopa as substrate
Format: biochemical
Details: L-dopa as a substrate, compared with arbutin (Tokyo Kasei Kogyo)
Description: A test of [6]-shogaol obtained in Example 5 about the inhibition of the activity of mushroom-derived tyrosinase was done, using L-dopa as a substrate.

CCCCC/C=C/C(=O)CCc1ccc(O)c(OC)c1 [[6]-shogaol]
inhibition of tyrosinase activity: inhibited tyrosinase activity; also recorded: inhibitory activity at the same level as that of arbutin
